Results as given in patent US8673950B2, “Dihydrooxazol-2-amine derivatives” (Hoffmann-LaRoche Inc., priority 2010, dated 2014).

Legend:
mouse TAAR1 = mouse TAAR1 (Mus musculus (Mouse), UniProt Q923Y8); assay: Radioligand binding assay on mouse TAAR1; settings: mouse TAAR1, membranes of stably transfected HEK-293 cells; first value of cell mouse/rat
Description: (§1) Construction of TAAR Expression Plasmids and Stably Transfected Cell Lines
(§2) For the construction of expression plasmids the coding sequences of human, rat and mouse TAAR 1 were amplified from genomic DNA essentially as described by Lindemann et al.. The Expand High Fidelity PCR System (Roche Diagnostics) was used with 1.5 mM Mg^2+ and purified PCR products were cloned into pCR2.1-TOPO cloning vector (Invitrogen) following the instructions of the manufacturer. PCR products were subcloned into the pIRESneo2 vector (BD Clontech, Palo Alto, Calif.), and expression vectors were sequence verified before introduction in cell lines.
(§3) HEK293 cells (ATCC # CRL-1573) were cultured essentially as described by Lindemann et al. (2005). For the generation of stably transfected cell lines HEK293 cells were transfected with the pIRESneo2 expression plasmids containing the TAAR coding sequences (described above) with Lipofectamine 2000 (Invitrogen) according to the instructions of the manufacturer, and 24 hrs post transfection the culture medium was supplemented with 1 mg/ml G418 (Sigma, Buchs, Switzerland). After a culture period of about 10 d clones were isolated, expanded and tested for responsiveness to trace amines (all compounds purchased from Sigma) with the cAMP Biotrak Enzyme immunoassay (EIA) System (Amersham) following the non-acetylation EIA procedure provided by the manufacturer.
Radioligand Binding Assay on Mouse TAAR1
(§4) Membrane Preparation and Radioligand Binding.
(§5) HEK-293 cells stably expressing mouse TAAR1 were maintained at 37° C. and 5% CO2 in DMEM high glucose medium, containing fetal calf serum (10%, heat inactivated for 30 min at 56° C.), penicillin/streptomycin (1%), and 375 μg/ml geneticin (Gibco). Cells were released from culture flasks using trypsin/EDTA, harvested, washed twice with ice-cold PBS (without Ca^2+ and Mg^2+), pelleted at 1'000 rpm for 5 min at 4° C., frozen and stored at −80° C. Frozen pellets were suspended in 20 ml HEPES-NaOH (20 mM, pH 7.4) containing 10 mM EDTA and homogenized with a Polytron (PT 6000, Kinematica) at 14'000 rpm for 20 s. The homogenate was centrifuged at 48'000×g for 30 min at 4° C. Subsequently, the supernatant was removed and discarded, and the pellet resuspended in 20 ml HEPES-NaOH (20 mM, pH 7.4) containing 0.1 mM EDTA using the Polytron (20 s at 14'000 rpm). This procedure was repeated and the final pellet resuspended in HEPES-NaOH containing 0.1 mM EDTA and homogenized using the Polytron. Typically, aliquots of 2 ml membrane portions were stored at −80° C. With each new membrane batch the dissociation constant (Kd) was determined via a saturation curve. The TAAR1 radioligand ^3[H]-(S)-4-[(ethyl-phenyl-amino)-methyl]-4,5-dihydro-oxazol-2-ylamine (described in WO 2008/098857) was used at a concentration equal to the calculated Kd value, that was usually around 0.7 nM, resulting in the binding of approximately 0.5% of the radioligand and a specific binding representing approximately 70% of the total binding. Nonspecific binding was defined as the amount of ^3[H]-(S)-4-[(ethyl-phenyl-amino)-methyl]-4,5-dihydro-oxazol-2-ylamine bound in the presence of 10 μM unlabeled ligand. All compounds were tested at a broad range of concentrations (10 μM to 10 μM) in duplicates. […] The 96 deep well plates were incubated for 1 hr at 4° C. Incubations were terminated by rapid filtration through Unifilter-96 plates (Packard Instrument Company) and glass filters GF/C (Perkin Elmer) presoaked for 1 hr in polyethylenimine (0.3%) and washed 3 times with 1 ml of cold binding buffer. After addition of 45 μl of Microscint 40 (PerkinElmer) the Unifilter-96 plate was sealed and after 1 hr the radioactivity counted using a TopCount Microplate Scintillation Counter (Packard Instrument Company).

rat TAAR1 = rat TAAR1 (Rattus norvegicus (Rat), UniProt Q923Y9); assay: Radioligand binding assay on rat TAAR1; settings: rat TAAR1, membranes of stably transfected HEK-293 cells; second value of cell mouse/rat
rat TAAR1, sequence (Q923Y9 whole entry): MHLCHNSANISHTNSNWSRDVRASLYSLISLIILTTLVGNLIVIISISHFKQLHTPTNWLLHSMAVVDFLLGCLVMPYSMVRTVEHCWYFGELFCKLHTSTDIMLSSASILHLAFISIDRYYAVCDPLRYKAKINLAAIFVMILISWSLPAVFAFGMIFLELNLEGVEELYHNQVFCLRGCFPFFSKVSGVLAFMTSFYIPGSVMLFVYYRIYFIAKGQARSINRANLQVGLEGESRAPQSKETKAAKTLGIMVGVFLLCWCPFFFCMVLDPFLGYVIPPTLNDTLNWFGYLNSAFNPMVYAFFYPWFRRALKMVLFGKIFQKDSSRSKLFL
Description: as §1, §2, §3
Radioligand Binding Assay on Rat TAAR1
as §4
as §5, with “expressing rat” for “expressing mouse”, “curve. […]” for “curve. The TAAR1 radioligand ^3[H]-(S)-4-[(ethyl-phenyl-amino)-methyl]-4,5-dihydro-oxazol-2-ylamine (described in WO 2008/098857) was used at a concentration equal to the calculated Kd value, that was usually around 0.7 nM, resulting in the binding of approximately 0.5% of the radioligand and a specific binding representing approximately 70% of the total binding.”, “(10 pM” for “(10 μM”

mouse TAAR1, sequence (Q923Y8 whole entry): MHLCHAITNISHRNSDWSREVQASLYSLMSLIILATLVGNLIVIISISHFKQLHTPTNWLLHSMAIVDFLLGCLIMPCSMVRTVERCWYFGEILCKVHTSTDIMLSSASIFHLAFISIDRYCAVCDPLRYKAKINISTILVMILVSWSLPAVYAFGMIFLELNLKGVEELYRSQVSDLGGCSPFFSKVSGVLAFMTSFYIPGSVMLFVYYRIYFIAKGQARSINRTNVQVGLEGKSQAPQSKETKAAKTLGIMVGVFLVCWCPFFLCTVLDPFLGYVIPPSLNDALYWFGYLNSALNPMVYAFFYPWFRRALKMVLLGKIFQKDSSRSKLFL

| Structure (SMILES) | Ki (mouse TAAR1) [µM] | Ki (rat TAAR1) [µM] |
| --- | --- | --- |
| CC(=O)c1cnc(Nc2ccc(CC[C@H]3COC(N)=N3)cc2)nc1 [Example 47, 1-(2-{4-[2-((S)-2-Amino-4,5-dihydro-oxazol-4-yl)-ethyl]phenylamino}-pyrimidin-5-yl)-ethanone] | 0.0192 | 0.0024 |
| Cc1ccnc(Nc2ccc(CC[C@H]3COC(N)=N3)cc2)n1 [Example 48, {4-[2-((S)-2-Amino-4,5-dihydro-oxazol-4-yl)-ethyl]-phenyl}-(4-methyl-pyrimidin-2-yl)-amine] | 0.0166 | 0.0012 |
| CCCc1cnc(Nc2ccc(CC[C@H]3COC(N)=N3)cc2)nc1 [Example 49, {4-[2-((8)-2-Amino-4,5-dihydro-oxazol-4-yl)-ethyl]-phenyl}-(5-propyl-pyrimidin-2-yl)-amine] | 0.0007 | 0.0006 |
| NC1=N[C@@H](CCc2ccc(Nc3cnc(Cl)nc3)cc2)CO1 [Example 50, {4-[2-((S)-2-Amino-4,5-dihydro-oxazol-4-yl)-ethyl]-phenyl}-(2-chloro-pyrimidin-5-yl)-amine] | 0.0218 | 0.0006 |
| NC1=N[C@@H](CCc2ccc(Nc3ncc(Br)cn3)cc2)CO1 [Example 51, {4-[2-((S)-2-Amino-4,5-dihydro-oxazol-4-yl)-ethyl]-phenyl}-(5-bromo-pyrimidin-2-yl)-amine] | 0.0006 | 0.0004 |
| C[C@@H]1OC(N)=N[C@H]1CCc1ccc(Nc2ncc(Cl)cn2)cc1 [Example 52, {4-[2-((4S,5S)-2-Amino-5-methyl-4,5-dihydro-oxazol-4-yl)-ethyl]-phenyl}-(5-chloro-pyrimidin-2-yl)-amine] | 0.0046 | 0.0006 |
| CCC(=O)c1cnc(Nc2ccc(CC[C@H]3COC(N)=N3)cc2)nc1 [Example 53, (S)-1-(2-(4-(2-(2-Amino-4,5-dihydrooxazol-4-yl)ethyl)phenylamino)pyrimidin-5-yl)propan-1-one] | 0.113 | 0.0265 |
| NC1=N[C@@H](CCc2ccc(Nc3ncc(C4CC4)cn3)cc2)CO1 [Example 54, {4-[2-((S)-2-Amino-4,5-dihydro-oxazol-4-yl)-ethyl]-phenyl}-(5-cyclopropyl-pyrimidin-2-yl)-amine] | 0.0003 | 0.0004 |
| CCOc1cnc(Nc2ccc(CC[C@H]3COC(N)=N3)cc2)nc1 [Example 55, {4-[2-((S)-2-Amino-4,5-dihydro-oxazol-4-yl)-ethyl]-phenyl}-(5-ethoxy-pyrimidin-2-yl)-amine] | 0.005 | 0.0083 |
| NC1=N[C@@H](CCc2ccc(Nc3ncc(C(F)(F)F)cn3)cc2)CO1 [Example 56, (S)-4-(4-(5-(Trifluoromethyl)pyrimidin-2-ylamino)phenethyl)-4,5-dihydrooxazol-2-amine] | 0.0019 | 0.0039 |
| CC(C)(C)c1cnc(Nc2ccc(CC[C@H]3COC(N)=N3)cc2)nc1 [Example 57, (S)-4-(4-(5-tert-Butylpyrimidin-2-ylamino)phenethyl)-4,5-dihydrooxazol-2-amine] | 0.0005 | 0.0004 |
| CCC(CC)c1cnc(Nc2ccc(CC[C@H]3COC(N)=N3)cc2)nc1 [Example 58, (S)-4-(4-(5-(Pentan-3-yl)pyrimidin-2-ylamino)phenethyl)-4,5-dihydrooxazol-2-amine] | 0.0002 | 0.0001 |
| N#Cc1cnc(Nc2ccc(CC[C@H]3COC(N)=N3)cc2)nc1 [Example 59, 2-{4-[2-((S)-2-Amino-4,5-dihydro-oxazol-4-yl)-ethyl]-phenylamino}-pyrimidine-5-carbonitrile] | 0.008 | 0.0008 |
| NC1=N[C@@H](CCc2ccc(Nc3ncc(C4CCC4)cn3)cc2)CO1 [Example 60, (S)-4-(4-(5-Cyclobutylpyrimidin-2-ylamino)phenethyl)-4,5-dihydrooxazol-2-amine] | 0.0003 | 0.0002 |
| CC(C)c1cnc(Nc2ccc(CC[C@H]3COC(N)=N3)cc2)nc1 [Example 61, (S)-4-(4-(5-Isopropylpyrimidin-2-ylamino)phenethyl)-4,5-dihydrooxazol-2-amine] | 0.0007 | 0.0002 |
| NC1=N[C@@H](CCc2ccc(NC(c3ccc(Br)cn3)C(F)(F)F)cc2)CO1 (stereo partly drawn) [Example 62, (S)-4-(2-{4-[1-(5-Bromo-pyridin-2-yl)-2,2,2-trifluoro-ethylamino]-phenyl}-ethyl)-4,5-dihydro-oxazol-2-ylamine] | 0.0623 | 0.0132 |
| NC1=N[C@@H](CCc2ccc(NC(c3ccc(Cl)cc3)C(F)(F)F)cc2)CO1 (stereo partly drawn) [Example 63, (4S)-4-(4-(1-(4-Chlorophenyl)-2,2,2-trifluoroethylamino)phenethyl)-4,5-dihydrooxazol-2-amine] | 0.0084 | 0.0022 |
| NC1=N[C@@H](CCc2ccc(N[C@@H](c3ccc(Cl)cc3)C(F)(F)F)cc2)CO1 [Example 64, (+)-(S)-4-(4-((S)-1-(4-Chlorophenyl)-2,2,2-trifluoroethylamino)phenethyl)-4,5-dihydrooxazol-2-amine] | 0.063 | 0.002 |
| NC1=N[C@@H](CCc2ccc(N[C@H](c3ccc(Cl)cc3)C(F)(F)F)cc2)CO1 [Example 65, (−)-(S)-4-(4-((R)-1-(4-chlorophenyl)-2,2,2-trifluoroethylamino)phenethyl)-4,5-dihydrooxazol-2-amine] | 0.0244 | 0.0032 |
| NC1=N[C@@H](CCc2ccc(NC(c3cccc(F)c3)C(F)(F)F)cc2)CO1 (stereo partly drawn) [Example 66, (4S)-4-(4-(2,2,2-Trifluoro-1-(3-fluorophenyl)ethylamino)phenethyl)-4,5-dihydrooxazol-2-amine] | 0.023 | 0.0064 |
| NC1=N[C@@H](CCc2ccc(NC(c3ccc(C(F)(F)F)cc3)C(F)(F)F)cc2)CO1 (stereo partly drawn) [Example 67, (4S)-4-(4-(2,2,2-Trifluoro-1-(4-(trifluoromethyl)phenyl)ethylamino)phenethyl)-4,5-dihydrooxazol-2-amine] | 0.0412 | 0.0084 |
| NC1=N[C@@H](CCc2ccc(NC(c3ccc(Cl)cn3)C(F)(F)F)cc2)CO1 (stereo partly drawn) [Example 68, (4S)-4-(4-(1-(5-Chloropyridin-2-yl)-2,2,2-trifluoroethylamino)phenethyl)-4,5-dihydrooxazol-2-amine] | 0.0651 | 0.0265 |
